Three compounds from patent publication US20250333419A1, “BICYCLIC COMPOUNDS AS INHIBITORS OF WRN” (Incyte Corporation, priority 2023, published 2025) can be followed below.

Series [1] concerns WRN helicase. Kind of series: Intact mass spectrometry and peptide mapping of covalent modification. It is filed as binding. Here is the method: The intact WRN helicase has an observed mass of 67,573.1 Da (theoretical mass of 67,409.4 Da). The WRN helicase incubated with the compound of Example 1 has an observed mass of 68,164.5 (theoretical mass of 1:1 adduct 68,000 Da). The shift in the observed mass between intact WRN and WRN incubated with the compound of Example 1 is equivalent to the theorectical mass of the compound of Example 1 (592.2 Da). […] The mass spectrometry results, combined with the ATPase assay results established that covalently targeting Cys727 is and effective and tractable way to inhibit both the ATPase and helicase activities of WRN.

For series [2], the target named is T1, WRN Cys727Ala (Homo sapiens, UniProt Q14191, C727A).
T1 construct: Point mutations were made in the His-tagged WRN construct used for biochemical characterization (aa S2-S1235); His; made in house
T1 sequence (Q14191 2-1235 C727A): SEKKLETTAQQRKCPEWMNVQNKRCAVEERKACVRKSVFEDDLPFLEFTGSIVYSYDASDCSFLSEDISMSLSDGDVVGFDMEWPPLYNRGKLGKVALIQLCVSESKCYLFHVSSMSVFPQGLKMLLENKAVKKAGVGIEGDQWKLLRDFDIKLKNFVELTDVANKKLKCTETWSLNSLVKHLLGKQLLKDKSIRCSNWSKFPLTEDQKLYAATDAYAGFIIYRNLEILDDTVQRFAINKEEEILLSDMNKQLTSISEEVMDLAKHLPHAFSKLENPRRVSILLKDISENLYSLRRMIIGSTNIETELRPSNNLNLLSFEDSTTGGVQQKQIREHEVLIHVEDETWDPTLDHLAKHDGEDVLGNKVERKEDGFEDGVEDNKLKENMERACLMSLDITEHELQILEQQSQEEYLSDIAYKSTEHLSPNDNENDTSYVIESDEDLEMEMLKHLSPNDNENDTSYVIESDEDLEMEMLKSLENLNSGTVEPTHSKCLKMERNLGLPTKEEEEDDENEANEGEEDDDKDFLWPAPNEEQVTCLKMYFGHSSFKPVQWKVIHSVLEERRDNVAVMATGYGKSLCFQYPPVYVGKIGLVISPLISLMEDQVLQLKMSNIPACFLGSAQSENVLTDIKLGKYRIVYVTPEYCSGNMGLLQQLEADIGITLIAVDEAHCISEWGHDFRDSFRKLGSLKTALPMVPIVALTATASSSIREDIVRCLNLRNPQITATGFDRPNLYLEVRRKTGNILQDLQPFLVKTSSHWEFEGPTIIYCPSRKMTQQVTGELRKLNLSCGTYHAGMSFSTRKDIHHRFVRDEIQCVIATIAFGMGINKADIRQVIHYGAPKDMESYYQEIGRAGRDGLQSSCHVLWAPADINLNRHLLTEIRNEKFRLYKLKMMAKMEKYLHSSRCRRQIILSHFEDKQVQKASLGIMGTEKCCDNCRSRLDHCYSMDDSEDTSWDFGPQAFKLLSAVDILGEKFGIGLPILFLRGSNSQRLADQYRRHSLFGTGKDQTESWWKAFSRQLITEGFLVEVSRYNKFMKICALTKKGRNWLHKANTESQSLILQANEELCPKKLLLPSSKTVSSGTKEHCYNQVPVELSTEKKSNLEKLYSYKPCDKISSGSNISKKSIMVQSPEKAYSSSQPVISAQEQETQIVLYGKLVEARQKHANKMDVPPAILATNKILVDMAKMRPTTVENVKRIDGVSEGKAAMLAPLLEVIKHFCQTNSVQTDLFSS
Kind of series: ATPase assay on WRN Cys727Ala mutant, without preincubation. In kind it is biochemical. Here is the method: (§1) Point mutations were made in the His-tagged WRN construct used for biochemical characterization (aa S2-S1235). Cysteine 580 (Walker A motif), 727 (linker), 864 (Domain 2 Å) and 1041 (RQC domain) were each mutated to both Serine and Alanine using site directed mutagenesis, for a total of eight mutants. Purified proteins were assayed in both helicase and ATPase assays. Cys580 mutation to either Ser or Ala abolished all activity, consistent with Walker A motif cysteine function. Cys864 (D2) mutation to alanine and Cys1041 (RQC domain) had no significant impact on helicase or ATPase activity. Cys727 abolished helicase activity (Table 6), whether it was mutated to Ala or Ser. ATPase activity for Cys727 mutants was reduced but not abolished (Table 7). Table 6 is the panel of the nine variant WRN helicase proteins that were screen using a flourscence-based DNA unwinding assay with an increase in flourscence intensity indicating DNA unwinding. Table 7 is the panel of the nine variant WRN helicase proteins that were screened using ADP-Glo assay to measure DNA stimulated ATPase activity, with an increase in luminescence indicating ATP hydrolysis.
(§2) From FIG. 2, the top line represented WT. […] The mutant experiments were performed without preincubation.

Series [3] addresses T2, WRN Cys727Ser (Homo sapiens, UniProt Q14191, C727S).
T2 construct: Point mutations were made in the His-tagged WRN construct used for biochemical characterization (aa S2-S1235); His; made in house
Kind of series: ATPase assay on WRN Cys727Ser mutant, without preincubation. In kind it is biochemical. Here is the method:
as §1, §2

Series [4] addresses T3, WRN helicase (Homo sapiens, UniProt Q14191).
T3 construct: His-tagged WRN construct used for biochemical characterization (aa S2-S1235); His; made in house; host or cells: Sf9 insect cells (baculovirus)
The series is described as follows: ATPase assay on WRN helicase (ADP-Glo) with varied preincubation times. It is filed as biochemical. On the procedure:
An ATPase assay on WRN helicase was performed using ADP-Glo and IC50 values were determined by varying the compound of Example 1 preincubation times (FIG. 1). […] In FIG. 1, 0 hrs is represented by bottom dotted line; 1 hour is represented by the broken line with two bullets; 2 hrs is represented by solid line; and 4 hrs is represented by top dashed line.

Series [5] deals with T4, WRN (Homo sapiens, UniProt Q14191).
T4 construct: A His-tagged construct of WRN (AA S2-S1235) was produced and used for the ATPase assay; His; made in house; host or cells: Sf9 insect cells (baculovirus)
T4 sequence (Q14191 2-1235): as the sequence (Q14191 2-1235 C727A) above, with A726C counted along it
Kind of series: WRN ATPase activity assay (ADP-Glo). In kind it is biochemical. Particulars: IC50, 1-hr pre-incubation with enzyme; geometric means of at least 2 independent replicates. Here is the method: Compounds of the Examples were tested for WRN ATPase activity. WRN ATPase activity catalyzes ATP hydrolysis to produce ADP and phosphate. DNA encoding the target protein, 6×HIS-TEV-WRN-517-945, was produced, cloned and transfected as detailed in Example D. The amount of ADP produced was measured using ADP-Glo™ Kinase Assay kit from Promega Corporation in a Greiner white regular volume 384 wells assay plate (Greiner #781075). Data was normalized to a standard curve generated using various ADP concentrations and the corresponding luminescent signal intensities at each concentration. The assay conditions were optimized for enzyme concentration (WRN), substrate concentrations (ATP & dsDNA), and the linearity of the ATPase reaction, in the following assay buffer: 50 mM Tris-HCl, pH-7.5, 2 mM MgCl2, 50 mM NaCl, 1 mM EGTA, 0.01% P-20, 0.05% BSA, and 2 mM DTT prepared with nuclease free water.
A serial dilution (1:3 scheme) of the compounds were prepared in neat DMSO, with 100 nL of the compounds dispensed in the 384 wells assay plate. An 1-hr pre-incubation of the compounds with enzyme was included. A His-tagged construct of WRN (AA S2-S1235) was produced and used for the ATPase assay. Maximum inhibition control wells were set up with the addition of only assay buffer, and no inhibition control wells were set up with neat DMSO without test compounds. The reaction was initiated by addition of 5 μL substrate mix (200 μM ultrapure ATP, and 50 nM dsDNA prepared in assay buffer) and incubated at 25° C. for 35 min. A forked dsDNA oligomer substrate was prepared by annealing equal amounts of oligo GPat-1 ([BHQ2][…]) and oligo GPat-2 ([…][TAM]) and was used as dsDNA substrate for WRN ATPase assay. A typical ATPase reaction consists of 25 nM forked dsDNA, 100 μM ATP, and 1 nM WRN prepared in assay buffer. The WRN ATPase reaction was stopped by the addition of 5 μL of ADP-Glo Reagent from ADP-Glo™ Kinase Assay kit and incubated for 40 min to deplete the unreacted ATP. Afterwards, 5 μL of Kinase Detection Reagent from the ADP-Glo™ Kinase Assay kit was added and incubated for 1 hr for the development of luminescence signal.
Luminesce signals were measured on BMG PHERAstar FSX using luminescence protocol. Data analysis was carried out using Genedata software following % of control normalization. Fitting parameters include dose response IC50, Hill slope (n), maximum inhibition (S∞), and minimum inhibition (S0). The reported IC50 values for compounds in this invention are the geometric means of at least 2 independent replicates.
On the technique in general: ADP-Glo turns the ADP formed in a reaction into a luminescent signal.

Series [6] has as its target T4, WRN. The series is described as follows: WRN Helicase activity assay (fluorescence DNA unwinding). In kind it is biochemical. The following applies: IC50, 1-hr pre-incubation with enzyme; geometric means of at least 2 independent replicates. Here is the method:
Compounds of the examples were tested for WRN helicase activity. DNA encoding the target protein, 6×HIS-TEV-WRN-517-945, was produced, cloned and transfected as detailed in Example D. To determine the inhibitory properties of the compounds, a 384 wells plate-based Helicase assay was set up to measure the extent of DNA unwinding (Helicase) activity of WRN. The WRN Helicase assay was designed to measure increase in fluorescence signal using a fluorescence based, donor-quencher paired forked dsDNA oligomer substrate (custom synthesis from Sigma-Aldrich) prepared by annealing equal amounts of oligo GPat-1 ([BHQ2][…]) and oligo GPat-2 ([…][TAM]). Continuous measurement of fluorescent signal was used to optimize the buffer conditions, concentration of enzyme (WRN), concentration of substrates (ATP & dsDNA), and the linearity of the Helicase reaction. All solutions were prepared in the following assay buffer: 50 mM Tris-HCl, pH-7.5, 2 mM MgCl2, 50 mM NaCl, 1 mM EGTA, 0.01% P-20, 0.05% BSA, and 2 mM DTT prepared with nuclease free water.
A serial dilution (1:3 scheme) of the compounds was prepared in neat DMSO and 100 nL of the compounds was dispensed in the Greiner black low volume (Greiner #784076) 384 wells assay plate. An 1-hr pre-incubation of the compounds with enzyme was included. A His-tagged construct of WRN (AA S2-S1235) was produced and used for the ATPase assay. Maximum inhibition control wells were set up with the addition of only assay buffer, and no inhibition control wells were set up with neat DMSO without test compounds. The reaction was initiated by addition of 5 μL substrate mix (200 μM ultrapure ATP, and 50 nM dsDNA prepared in assay buffer) and incubated at 25° C. for 35 min. A typical Helicase reaction consists of 25 nM forked dsDNA, 100 μM ATP, and 1 nM WRN prepared in assay buffer. The WRN Helicase reaction was quenched by the addition of 5 μL ‘STOP’ solution containing 100 mM EDTA (final EDTA concentration 33.33 mM) prepared in assay buffer. The plates were read on BMG PHERAstar FSX using 540/590 module to measure an increase of fluorescence. Data analysis was carried out using the Genedata software following % of control normalization. Fitting parameters include dose response IC50, Hill slope (n), maximum inhibition (S∞), and minimum inhibition (S0). The reported IC50 values for compounds in this invention are the geometric means of at least 2 independent replicates.

Each structure is given as a SMILES string.

T3 sequence (Q14191 2-1235): as the sequence (Q14191 2-1235 C727A) above, with A726C counted along it
T2 sequence (Q14191 2-1235 C727S): as the sequence (Q14191 2-1235 C727A) above, with A726S counted along it

As a reminder, the IC50 is the concentration that inhibits the measured activity by half. High values mean a need for much substance, low ones inhibition by little substance. For `C=CC(=O)Nc1ccccc1-c1c(CC)n(CC(=O)Nc2ccc(C(F)(F)F)cc2)c2nc(C3=CCOCC3)nn2c1=O` [Example 1, N-(2-(2-(3,6-Dihydro-2H-pyran-4-yl)-5-ethyl-7-oxo-4-(2-oxo-2-((4-(trifluoromethyl)phenyl)amino)ethyl)-4,7-dihydro-[1,2,4]triazolo[1,5-a]pyrimidin-6-yl)phenyl)acrylamide], the “adduct formation with WRN helicase” value in series [1] (intact mass spectrometry) was 1:1 adduct. The residue modified entry in series [1] (peptide mapping analysis) is given as “Cys727 is the only residue to be modified”. For the same compound, the “fold shift relative to WT” value is 13 fold in series [2] (Cys727Ala vs WT, without preincubation) and 86 fold in series [3] (Cys727Ser vs WT). The IC50 was 5820 nM in series [2] (Cys727Ala, without preincubation); 38500 nM in series [3] (Cys727Ser); 24 nM in series [4] (preincubation 1 hour); 12 nM in series [4] (preincubation 2 hrs); 8 nM in series [4] (preincubation 4 hrs); 449 nM in series [4] (without preincubation). Besides, the concentration for half-maximal inhibition (IC50) in series [5] and in series [6] was < 100 nM in each case. Further, the “effect of Cys 727 mutation on potency” value in series [2] (FIG. 2, Cys727Ala and Cys727Ser) is “reduces the potency”. Also, the “time dependence of inhibition” value in series [4] (FIG. 1) is “inhibits WRN helicase in a time dependent manner”.
Turning to `C=CC(=O)Nc1cc(C(F)(F)F)ccc1-c1c(CC)n(CC(=O)Nc2ccc(C(F)(F)F)cc2)c2nc(C3=CCOCC3)nn2c1=O` [Example 12, N-(2-(2-(3,6-Dihydro-2H-pyran-4-yl)-5-ethyl-7-oxo-4-(2-oxo-2-((4-(trifluoromethyl)phenyl)amino)ethyl)-4,7-dihydro-[1,2,4]triazolo[1,5-a]pyrimidin-6-yl)-5-(trifluoromethyl)phenyl)acrylamide], the IC50 in series [5] and in series [6] was < 100 nM in each case.
As for `C=CC(=O)Nc1c(C)cccc1-c1c(CC)n(CC(=O)Nc2ccc(C(F)(F)F)cc2)c2nc(C3=CCOCC3)nn2c1=O` [Example 7, N-(2-(2-(3,6-Dihydro-2H-pyran-4-yl)-5-ethyl-7-oxo-4-(2-oxo-2-((4-(trifluoromethyl)phenyl)amino)ethyl)-4,7-dihydro-[1,2,4]triazolo[1,5-a]pyrimidin-6-yl)-6-methylphenyl)acryl amide], the results for the IC50 in series [5] and in series [6] were 100 to 500 nM and 500 to 1000 nM, respectively.
